The record followed here is patent US20190231884A1, “SYNTHETIC PULMONARY SURFACTANT COMPOSITION FOR TREATING LUNG CONDITIONS” (priority 2016, published 2019).

In brackets after ≈: the same amount, converted by molar mass.

Assay [1] relates to M. tuberculosis H37Rv reference strain. As to the kind of experiment: MGIT 960 mycobacterial growth inhibition, H37Rv. In kind it is cell-based, Mycobacterium tuberculosis. Particulars: for GROWTH UNITS (Day 8) / SUSCEPTIBILITY MIC99: H37Rv.
In assay [2] the test system is M. tb X51 clinical isolate. The assay can be described thus: microbe, parasite or virus in culture. In kind it is cell-based, Mycobacterium tuberculosis. Particulars: for GROWTH UNITS (Day 8) / SUSCEPTIBILITY MIC99: X51.
Where [3] appears, read: Linezolid 1 μg/ml, growth control GU 400.

With `CC(=O)NC[C@H]1CN(c2ccc(N3CCOCC3)c(F)c2)C(=O)O1` [Linezolid, (S)-N-[[3-(3-fluoro-4-morpholinylpheny1)-2-oxo-5-oxazolidinyl]methyl] acetamide], the “GROWTH UNITS (Day 8)” value in assay [1] (Linezolid 0.125 μg/ml) amounted to 12030; in assay [1] (Linezolid 0.25 μg/ml), 12878; in assay [1] (Linezolid 0.5 μg/ml) it was 4674; in assay [1] (setting [3]) it was 377; in assay [2] (Linezolid 0.125 μg/ml) it was 9164; in assay [2] (Linezolid 0.25 μg/ml), 6727. In addition, the “GROWTH UNITS (Day 8)” value in assay [2] (Linezolid 0.5 μg/ml) is 714; in assay [2] (setting [3]), 0. In addition, the “SUSCEPTIBILITY MIC99” value is reported as “− (the GU of the drug-containing tube were more than 400, the results were defined as showing resistance)” in assay [1] (Linezolid 0.125 μg/ml); “− (the GU of the drug-containing tube were more than 400, the results were defined as showing resistance)” in assay [1] (Linezolid 0.25 μg/ml); “− (the GU of the drug-containing tube were more than 400, the results were defined as showing resistance)” in assay [1] (Linezolid 0.5 μg/ml); “+ (when the GU of the drug-containing tube were less than 400, the results were considered to show susceptibility)” in assay [1] (Linezolid 1 μg/ml); “− (the GU of the drug-containing tube were more than 400, the results were defined as showing resistance)” in assay [2] (Linezolid 0.125 μg/ml); “− (the GU of the drug-containing tube were more than 400, the results were defined as showing resistance)” in assay [2] (Linezolid 0.25 μg/ml). For the same molecule, the “SUSCEPTIBILITY MIC99” value in assay [2] (Linezolid 0.5 μg/ml) was “− (the GU of the drug-containing tube were more than 400, the results were defined as showing resistance)”; in assay [2] (Linezolid 1 μg/ml), “+ (when the GU of the drug-containing tube were less than 400, the results were considered to show susceptibility)”. In addition, the MIC in assay [1] (Mycobacterium tuberculosis, H37Rv Strain, read-out: Minimum Inhibitory Concentration) was found to be 1 µg/mL (≈ 2.96 µM); in assay [2] (Mycobacterium tuberculosis, read-out: Minimum Inhibitory Concentration), 1 µg/mL (≈ 2.96 µM).
